# Experimental data: patent US11382918B2, “Methods for treating Huntington's Disease” (PTC Therapeutics, Inc., priority 2017, dated 2022)
# Where a name gives a salt, the structure may show the parent alone.
# System: Endogenous Huntingtin Protein (HTT)
# Assay: Endogenous Huntingtin Protein Assay (ELISA-based MSD electrochemiluminescence)
# Assay type: cell-based
# Conditions: Table 1
# Method in brief: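 HTT protein in lysates was measured by electrochemiluminescence on the MSD platform. Rabbit monoclonal 5656S followed by SULFO-TAG anti-rabbit antibody served for detection after overnight 4 °C capture with MAB2166 or the polyglutamine-directed MW1 antibody.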
row,IC50,Compound
1,100 to 500 nM,"Cc1cc(-c2cc(=O)n3cc(C4CCN(C)CC4)ccc3n2)cc2cn(C)nc12 [compound 752, 2-(2,7-dimethyl-2H-indazol-5-yl)-7-(1-methylpiperidin-4-yl)-4H-pyrido[1,2-a]pyrimidin-4-one]"
2,1000 to 3000 nM,"Cc1cn2nc(-c3cc(=O)n4cc(N5CCNCC5)ccc4n3)cc2cn1 [compound 420, 2-(6-methylpyrazolo[1,5-a]pyrazin-2-yl)-7-(piperazin-1-yl)-4H-pyrido[1,2-a]pyrimidin-4-one]"
3,3000 to 33000 nM,"Cc1csc(-c2cc(=O)n3cc(N4CCN[C@@H](C)C4)ccc3n2)n1 [compound 162, 7-[(3S)-3-methylpiperazin-1-yl]-2-(4-methyl-1,3-thiazol-2-yl)-4H-pyrido[1,2-a]pyrimidin-4-one]"
4,3000 to 33000 nM,"Cc1cn2cc(-c3ccc4nc(N5CCNCC5)cc(=O)n4c3)cc(F)c2n1 [compound 268, 7-(8-fluoro-2-methylimidazo[1,2-a]pyridin-6-yl)-2-(piperazin-1-yl)-4H-pyrido[1,2-a]pyrimidin-4-one]"
5,3000 to 33000 nM,"Cc1cn2cc(-c3cc(=O)n4cc(C5CCN(C)CC5)ncc4n3)ccc2n1 [compound 579, 2-(2-methylimidazo[1,2-a]pyridin-6-yl)-7-(1-methylpiperidin-4-yl)-4H-pyrazino[1,2-a]pyrimidin-4-one]"
6,< 100 nM,"CCc1nc(C)cn2nc(-c3cc(=O)n4cc(C5CCN(C)CC5)ncc4n3)cc12 [compound 654, 2-(4-ethyl-6-methylpyrazolo[1,5-a]pyrazin-2-yl)-7-(1-methylpiperidin-4-yl)-4H-pyrazino[1,2-a]pyrimidin-4-one]"
7,500 to 1000 nM,"Cc1cc(C2CCN(C)CC2)cn2c(=O)cc(-c3ccc4nn(C)cc4c3)nc12 [compound 705, 9-methyl-2-(2-methyl-2H-indazol-5-yl)-7-(1-methylpiperidin-4-yl)-4H-pyrido[1,2-a]pyrimidin-4-one]"
8,3000 to 33000 nM,"CCN1C[C@@H]2C[C@H]1CN2c1ccc2nc(-c3cc4c(C)nc(C)cn4n3)cc(=O)n2c1 [compound 401, 2-(4,6-dimethylpyrazolo[1,5-a]pyrazin-2-yl)-7-[(1S,4S)-5-ethyl-2,5-diazabicyclo[2.2.1]hept-2-yl]-4H-pyrido[1,2-a]pyrimidin-4-one]"
9,500 to 1000 nM,"Cc1cc(C2CCNCC2)cn2c(=O)cc(-c3ccc4nn(C)cc4c3)nc12 [compound 721, 9-methyl-2-(2-methyl-2H-indazol-5-yl)-7-(piperidin-4-yl)-4H-pyrido[1,2-a]pyrimidin-4-one]"
10,3000 to 33000 nM,"Cn1cc2cc(-c3cc(=O)n4cc(N5CCN(CCO)CC5)ncc4n3)ccc2n1 [compound 591, 7-[4-(2-hydroxyethyl)piperazin-1-yl]-2-(2-methyl-2H-indazol-5-yl)-4H-pyrazino[1,2-a]pyrimidin-4-one]"
11,3000 to 33000 nM,"O=c1cc(-c2ccc3nccn3c2)nc2ccc(N3CCNCC3)cn12 [compound 108, 2-(imidazo[1,2-a]pyridin-6-yl)-7-(piperazin-1-yl)-4H-pyrido[1,2-a]pyrimidin-4-one]"
12,< 100 nM,"Cc1nc(C2CCNCC2)cn2c(=O)cc(-c3cc(F)c4nn(C)cc4c3)nc12 [compound 869, 2-(7-fluoro-2-methyl-2H-indazol-5-yl)-9-methyl-7-(piperidin-4-yl)-4H-pyrazino[1,2-a]pyrimidin-4-one]"
13,3000 to 33000 nM,"Cc1nc2ccc(-c3cc(=O)n4cc(N5CCNCC5)ccc4n3)cc2s1 [compound 219, 2-(2-methyl-1,3-benzothiazol-6-yl)-7-(piperazin-1-yl)-4H-pyrido[1,2-a]pyrimidin-4-one]"
14,< 100 nM,"Cc1cn2cc(-c3cc(=O)n4cc(C5CCNCC5)nc(C)c4n3)cc(F)c2n1 [compound 875, 2-(8-fluoro-2-methylimidazo[1,2-a]pyridin-6-yl)-9-methyl-7-(piperidin-4-yl)-4H-pyrazino[1,2-a]pyrimidin-4-one hydrochloride (1:2)]"
15,500 to 1000 nM,"Cc1cc(N2CCNCC2)cn2c(=O)cc(-c3ccc4nn(C)cc4c3)nc12 [compound 754, 9-methyl-2-(2-methyl-2H-indazol-5-yl)-7-(piperazin-1-yl)-4H-pyrido[1,2-a]pyrimidin-4-one]"

# More lines, now with the values behind:
row,Compound,IC50
1,"CN1CC=C(c2cn3c(=O)cc(-c4ccc5c(cnn5C)c4)nc3cn2)CC1 [compound 506, 2-(1-methyl-1H-indazol-5-yl)-7-(1-methyl-1,2,3,6-tetrahydropyridin-4-yl)-4H-pyrazino[1,2-a]pyrimidin-4-one]",3000 to 33000 nM
2,"Cc1cn2nc(-c3cc(=O)n4cc(N5CCNC(C(F)(F)F)C5)ccc4n3)cc2c(C)n1 (centres unmarked) [compound 844, 2-(4,6-dimethylpyrazolo[1,5-a]pyrazin-2-yl)-7-[3-(trifluoromethyl)piperazin-1-yl]-4H-pyrido[1,2-a]pyrimidin-4-one]",3000 to 33000 nM
3,"Cc1cn2nc(-c3cc(=O)n4cc(C5CCN(CCF)CC5)ccc4n3)cc2c(C)n1 [compound 662, 2-(4,6-dimethylpyrazolo[1,5-a]pyrazin-2-yl)-7-[1-(2-fluoroethyl)piperidin-4-yl]-4H-pyrido[1,2-a]pyrimidin-4-one]",500 to 1000 nM
4,"Cc1cn2nc(-c3cc(=O)n4cc(N5CCN(C)CC5)ccc4n3)cc2c(C2CC2)n1 [compound 684, 2-(4-cyclopropyl-6-methylpyrazolo[1,5-a]pyrazin-2-yl)-7-(4-methylpiperazin-1-yl)-4H-pyrido[1,2-a]pyrimidin-4-one]",3000 to 33000 nM
5,"Cc1cn2cc(-c3cc(=O)n4cc(C5=CCNCC5)ncc4n3)cc2c(C)n1 [compound 413, 2-(1,3-dimethylpyrrolo[1,2-a]pyrazin-7-yl)-7-(1,2,3,6-tetrahydropyridin-4-yl)-4H-pyrazino[1,2-a]pyrimidin-4-one hydrochloride (1:2)]",< 100 nM
6,"Cc1cn2nc(-c3cc(=O)n4cc(C5=CCN(C)CC5)cc(C)c4n3)cc2c(C)n1 [compound 481, 2-(4,6-dimethylpyrazolo[1,5-a]pyrazin-2-yl)-9-methyl-7-(1-methyl-1,2,3,6-tetrahydropyridin-4-yl)-4H-pyrido[1,2-a]pyrimidin-4-one]",3000 to 33000 nM
7,"Cc1nc2ccc(-c3cc(=O)n4cc(C5=CCNCC5)ncc4n3)cc2o1 [compound 421, 2-(2-methyl-1,3-benzoxazol-6-yl)-7-(1,2,3,6-tetrahydropyridin-4-yl)-4H-pyrazino[1,2-a]pyrimidin-4-one hydrochloride(1:1)]",3000 to 33000 nM
8,"CN1CCC(c2ccc3nc(-c4ccc(N(C)C)nc4)cc(=O)n3c2)CC1 [compound 841, 2-[6-(dimethylamino)pyridin-3-yl]-7-(1-methylpiperidin-4-yl)-4H-pyrido[1,2-a]pyrimidin-4-one]",3000 to 33000 nM
9,"Cc1cn2cc(-c3cc(=O)n4cc(N5CCNCC5)ccc4n3)cc(C3CC3)c2n1 [compound 714, 2-(8-cyclopropyl-2-methylimidazo[1,2-a]pyridin-6-yl)-7-(piperazin-1-yl)-4H-pyrido[1,2-a]pyrimidin-4-one]",3000 to 33000 nM
10,"Cc1cc(-c2cc(=O)n3cc(N4CCN(C)CC4)ccc3n2)cc2cnn(C)c12 [compound 846, 2-(1,7-dimethyl-1H-indazol-5-yl)-7-(4-methylpiperazin-1-yl)-4H-pyrido[1,2-a]pyrimidin-4-one]",3000 to 33000 nM
11,"Cc1cc2cc(-c3cc(=O)n4cc(N5CCNCC5)ccc4n3)oc2c(C)n1 [compound 486, 2-(5,7-dimethylfuro[2,3-c]pyridin-2-yl)-7-(piperazin-1-yl)-4H-pyrido[1,2-a]pyrimidin-4-one]",500 to 1000 nM
12,"Cc1cc(-c2cc(=O)n3cc(N4CCN(C)[C@@H](C)C4)ccc3n2)cc2cn(C)nc12 [compound 751, 2-(2,7-dimethyl-2H-indazol-5-yl)-7-[(3S)-3,4-dimethylpiperazin-1-yl]-4H-pyrido[1,2-a]pyrimidin-4-one]",3000 to 33000 nM
13,"Cc1cn2nc(-c3cc(=O)n4cc(N5CC[C@@H](CN(C)C)C5)ccc4n3)cc2c(C)n1 [compound 770, 7-{(3S)-3-[(dimethylamino)methyl]pyrrolidin-1-yl}-2-(4,6-dimethylpyrazolo[1,5-a]pyrazin-2-yl)-4H-pyrido[1,2-a]pyrimidin-4-one]",3000 to 33000 nM
14,"Cc1cn2nc(-c3cc(=O)n4cc(N5CCN(CCO)CC5)ccc4n3)cc2c(C)n1 [compound 531, 2-(4,6-dimethylpyrazolo[1,5-a]pyrazin-2-yl)-7-[4-(2-hydroxyethyl)piperazin-1-yl]-4H-]",3000 to 33000 nM
15,"Cc1cc(N2CCN[C@@H](C)C2)cn2c(=O)cc(-c3ccc4nn(C)cc4c3)nc12 [compound 756, 9-methyl-2-(2-methyl-2H-indazol-5-yl)-7-[(3S)-3-methylpiperazin-1-yl]-4H-pyrido[1,2-a]pyrimidin-4-one]",100 to 500 nM
16,"CCc1nc(C)cn2nc(-c3cc(=O)n4cc(N5CCN[C@@H](C)C5)cc(C)c4n3)cc12 [compound 787, 2-(4-ethyl-6-methylpyrazolo[1,5-a]pyrazin-2-yl)-9-methyl-7-[(3S)-3-methylpiperazin-1-yl]-4H-pyrido[1,2-a]pyrimidin-4-one]",3000 to 33000 nM
17,"CCCc1nc(C)cn2nc(-c3cc(=O)n4cc(N5CCNCC5)ccc4n3)cc12 [compound 723, 2-(6-methyl-4-propylpyrazolo[1,5-a]pyrazin-2-yl)-7-(piperazin-1-yl)-4H-pyrido[1,2-a]pyrimidin-4-one]",3000 to 33000 nM
18,"Cc1cn2nc(-c3cc(=O)n4cc(N5CCN(CCO)[C@H](C)C5)cc(C)c4n3)cc2c(C)n1 [compound 673, 2-(4,6-dimethylpyrazolo[1,5-a]pyrazin-2-yl)-7-[(3R)-4-(2-hydroxyethyl)-3-methylpiperazin-1-yl]-9-methyl-4H-pyrido[1,2-a]pyrimidin-4-one]",3000 to 33000 nM
19,"CCN1CC=C(c2ccc3nc(-c4cc5c(C)nc(C)cn5n4)cc(=O)n3c2)CC1 [compound 351, 2-(4,6-dimethylpyrazolo[1,5-a]pyrazin-2-yl)-7-(1-ethyl-1,2,3,6-tetrahydropyridin-4-yl)-4H-pyrido[1,2-a]pyrimidin-4-one]",3000 to 33000 nM
20,"Cc1cn2cc(-c3ccc4nc(C5CCNCC5)cc(=O)n4c3)cc(F)c2n1 [compound 410, 7-(8-fluoro-2-methylimidazo[1,2-a]pyridin-6-yl)-2-(piperidin-4-yl)-4H-pyrido[1,2-a]pyrimidin-4-one]",500 to 1000 nM
